Several values for one entry are separate records, joined by “and”; a condition that tells them apart may be missing. Equal values may be shown once.
Tested on: S. Typhimurium PhoP-promoter GFP reporter counterscreen, fluorescence, 4 h
Assay: S. Typhimurium GFP fluorescence modified counterscreen for PhoP regulon inhibitor project dose response (AID 1981)

SMILES | IC50
CC(=O)NC(c1ccc2ccccc2c1)c1ccc2cccnc2c1O (stereo unspecified) | 46.2 µM
CC(=O)N1CCN(c2cc3c(cc2F)c(=O)c(C(=O)O)cn3C2CC2)CC1 | 21.6 µM
Cc1ccc(C(=O)O)cc1N=Cc1cc(Br)cc(Br)c1O | 105 µM
O=[N+]([O-])c1ccc(O)c2ncccc12 | 2.7 µM
O=C(N/N=C/c1ccc([N+](=O)[O-])s1)C(O)c1ccccc1 (stereo unspecified) | 68.4 µM
COc1ccc(C(C[N+](=O)[O-])c2c(-c3ccccc3)cc3ccccn23)cc1 (stereo unspecified) | 56.9 µM
Oc1c(C(Nc2nc3ccccc3s2)c2ccco2)ccc2cccnc12 (stereo unspecified) | 57 µM
CCOC(=O)c1ccc(-c2ccc(C3Nc4ccccc4C(=O)N3O)o2)cc1 (stereo unspecified) | 112 µM
O=C(NC1CCCC1)c1ccc(Cl)s1 | 86.3 µM
C/C(=C\C(=O)OCCCCCCCCC(=O)O)C[C@@H]1OC[C@H](C[C@@H]2O[C@H]2[C@@H](C)[C@H](C)O)[C@@H](O)[C@H]1O | 14.1 µM
O=C(C[n+]1cc(-c2ccc(Cl)c(Cl)c2)n2c1CCC2)N1c2ccccc2Sc2ccccc21 | 84.7 µM
Nc1nc2ccccc2n1CCOc1ccccc1Cl | 104 µM
CCCCCCCCCCCCCCCC[N+](C)(C)CC | 24.9 µM
O=C(N/N=C/c1coc2ccc(Cl)cc2c1=O)c1cc(O)cc(O)c1 | 137 µM
COC(=O)c1c(NC(=O)c2ccc([N+](=O)[O-])o2)sc2c1CCN(C(C)C)C2 | 55.8 µM
O=Cc1ccc(O)c2ncccc12 | 6.78 µM
CCn1cc(C(=O)O)c(=O)c2cc(F)c(N3CCN(C(=S)NC(=O)c4cccc(F)c4)CC3)cc21 | 35.1 µM
C=CCNc1ncnc2c1[nH]c1ccccc12 | 106 µM
COC(=O)C1C(O)C(C)C(O)C(C)(O)/C=C\C=C(/C)C(=O)Nc2c(C)c(OC(C)=O)c3c(c2O)C(=O)C(C)=C2OCOC(=C23)/C(C)=C/C(C)(O)C(O)C(C)C1O (stereo unspecified) | 18.6 µM
CNC(=S)N1CCN(c2c(F)cc3c(=O)c(C(=O)O)cn(C4CC4)c3c2OC)CC1C (stereo unspecified) | 15.2 µM
Nc1ccc(Nc2ccccc2)cc1 | 92.1 µM
CN(C)C1C(=O)C(C(N)=O)=C(O)C2(O)C(=O)C3=C(O)c4c(O)cccc4C(C)(O)C3C(O)C12 (stereo unspecified) | 1.35 µM

SMILES | IC50
Cc1ccc(Nc2nc(N)c3ccccc3n2)cc1Cl | 74.4 µM
NC(=NCCCCCCN=C(N)/N=C(\N)Nc1ccc(Cl)cc1)/N=C(\N)Nc1ccc(Cl)cc1 | 9.12 µM and 9.93 µM and 9.09 µM
Cc1ccc(C(=O)N/N=C/c2cc(Br)ccc2O)cn1 | 68.4 µM
CCn1cc(C(=O)O)c(=O)c2cc(F)c(N3CCNCC3)cc21 | 0.89 µM
O=S1(=O)CCC(NC(=S)SCCOc2ccccc2)C1 (stereo unspecified) | 86.5 µM
CCn1cc(C(=O)O)c(=O)c2cc(F)c(N3CCN(C(=S)NC(=O)c4ccccc4F)CC3)cc21 | 79.4 µM
CO[C@@]1(NC(=O)C2SC(=C(C(N)=O)C(=O)O)S2)C(=O)N2C(C(=O)O)=C(CSc3nnnn3C)CS[C@@H]21 (stereo partly specified) | 21.7 µM
CCCCCCCCCCOC(=O)Cn1c(COc2ccc(C)cc2)[n+](C)c2ccccc21 | 25.8 µM
CCCC(=O)NC(c1cccs1)c1cc([N+](=O)[O-])c2cccnc2c1O (stereo unspecified) | 30.1 µM
C[C@H]1c2cccc(O)c2C(O)=C2C(=O)C3(O)C(O)=C(C(N)=O)C(=O)[C@@H](N(C)C)[C@@H]3[C@@H](O)[C@@H]21 (stereo partly specified) | 1.83 µM
COc1ccc(/C=N/Nc2cc(C)nc3ccccc23)cc1 | 84.8 µM
CC(C)NC1=C(Cl)C(=O)c2ccccc2C1=O | 59.4 µM
COc1c(N2CCN(C(=S)NCc3ccccc3)C(C)C2)c(F)cc2c(=O)c(C(=O)O)cn(C3CC3)c12 (stereo unspecified) | 31.9 µM
C#CCOCCOCCOCCNc1nc(N2CCN(C(=O)CCCCCCCCCCNC(=O)[C@H](CCCCN)n3cc(C[C@@H](C)CC)nn3)CC2)nc(N2CCN(C(=O)CCCCCCCCCCNC(=O)[C@H](CCCN=C(N)N)n3cc(C[C@@H](C)CC)nn3)CC2)n1 | 140 µM
CN1CCN(c2c(F)cc3c(=O)c(C(=O)O)cn4c3c2OCN4C)CC1 | 0.28 µM
O=C(CSc1ccccn1)N/N=C/c1cc([N+](=O)[O-])ccc1O | 45.6 µM
CC[n+]1c(/C=C/c2ccc(N(C)C)cc2)ccc2ccccc21 | 91.2 µM
COc1c(N2CCN[C@H](C)C2)c(F)cc2c(=O)c(C(=O)O)cn(C3CC3)c12 | 0.34 µM
CC(C)C(=O)NC(c1cccc([N+](=O)[O-])c1)c1ccc2cccnc2c1O (stereo unspecified) | 23.3 µM
C/C(=N\Nc1nc2ccccc2[nH]1)c1ccccn1 | 29.3 µM
O=C(Nc1nc(-c2ccccn2)cs1)c1ccc(Cl)s1 | 27.8 µM
NC1=NC[C@H](Cc2ccc(O)cc2)N1CCC12CC3CC(CC(C3)C1)C2 | 78.9 µM

SMILES | IC50
CCn1cc(C(=O)O)c(=O)c2cc(F)c(N3CCN(C(=O)Nc4ccccc4)CC3)cc21 | 27.7 µM
C=C1c2cccc(O)c2C(O)=C2C(=O)[C@]3(O)C(O)=C(C(N)=O)C(=O)[C@@H](N(C)C)[C@@H]3[C@@H](O)[C@H]12 | 0.39 µM
CCC(C)(C)c1ccc(OCCCC[n+]2ccc(C)cc2)c(C(C)(C)CC)c1 | 83.2 µM
COc1c(N2CCNC(C)C2)c(F)cc2c(=O)c(C(=O)O)cn(C3CC3)c12 (stereo unspecified) | 0.44 µM
Nc1[nH]c(=O)ncc1F | 10.6 µM
CCc1ccc(S(=O)(=O)/N=C2/C=C(Sc3ncn[nH]3)C(=O)c3ccccc32)cc1 | 138 µM
CN1CCN(c2cc3c(cc2F)c(=O)c(C(=O)O)cn3CCF)CC1 | 0.51 µM
CN1CCN(c2c(F)cc3c(=O)c(C(=O)O)cn4c3c2SCC4)CC1 | 7.73 µM and 6.13 µM
CCCCCCCSc1cc(OC)c(CCNC)cc1OC | 71.8 µM
CCCCNC(=O)c1cn(CC)c2cc(N3CCN(C)CC3)c(F)cc2c1=O | 63.6 µM
C[C@H]1c2cccc(O)c2C(O)=C2C(=O)[C@]3(O)C(O)=C(C(N)=O)C(=O)[C@@H](N(C)C)[C@@H]3[C@@H](O)[C@@H]21 | 1.54 µM
Cc1cc(C(=O)N/N=C/c2cc(Br)cc([N+](=O)[O-])c2O)c2ccccc2n1 | 93.5 µM
S=c1nc(C2CCCCC2)[nH][nH]1 | 136 µM
O=C1NC(=S)S/C1=C\C=C\c1ccc([N+](=O)[O-])o1 | 29.2 µM
COc1ccc(OCc2n(CC(=O)OC3CC(C)CCC3C(C)C)c3ccccc3[n+]2C)cc1 (stereo unspecified) | 113 µM
COc1c(N2CCN(C(=S)NC3CC4CCC3C4)C(C)C2)c(F)cc2c(=O)c(C(=O)O)cn(C3CC3)c12 (stereo unspecified) | 5.38 µM
Oc1c(Cl)cc(Cl)c2cccnc12 | 17.9 µM
CCCC(=O)NC(c1ccc(Cl)cc1)c1ccc2cccnc2c1O (stereo unspecified) | 62.3 µM
CCn1cc(C(=O)O)c(=O)c2cc3c(cc21)OCO3 | 67.5 µM
Cc1scc(C(=O)N/N=C/c2ccc([N+](=O)[O-])o2)c1C | 68.7 µM
COc1cc([N+](=O)[O-])cc(/C=N\NC(=O)C2COc3ccccc3O2)c1O (stereo unspecified) | 141 µM
CCCCCCCCCCCCCCCC[n+]1cccc2ccccc21 | 19.5 µM

SMILES | IC50
CNC[C@H](Cc1ccccc1)NC[C@@H](Cc1cccc2ccccc12)NCCc1ccc(C)cc1 | 29.9 µM
Oc1ccc(NCc2ccccc2OCc2ccccc2F)cc1 | 79.6 µM
OC(c1cc(C(F)(F)F)nc2c(Cl)cc(Cl)cc12)C1CCCCN1 (stereo unspecified) | 133 µM
O=C(N/N=C/c1cc(Cl)ccc1O)c1cccnc1 | 35 µM
CCCC(=O)NC(c1ccccc1)c1ccc2cccnc2c1O (stereo unspecified) | 32.1 µM
NC(N)=NN=C1CCCCCCCCCCC1 | 81.7 µM
Oc1ccc(N=Cc2ccc(O)c(O)c2)cc1 | 67.6 µM
CCN(CC)c1ccc(/C=N/Nc2nc3ccccc3[nH]2)c(O)c1 | 39.9 µM
CCn1cc(C(=O)O)c(=O)c2cc(F)c(N3CCN(C(=S)NC(=O)c4ccc(F)c(F)c4)CC3)cc21 | 46.6 µM
Nc1nc(F)nc2c1ncn2[C@@H]1O[C@H](CO)[C@@H](O)[C@H]1O | 18.3 µM
Cc1cc(C)c(NC(=O)c2cn3c4c(c(N5CCN(C)CC5)c(F)cc4c2=O)OCC3C)c(C)c1 (stereo unspecified) | 35.1 µM
CN(C)CCCNc1cc(C(C)(C)C)nc2c(-c3ccccc3)cnn12 | 83.5 µM
COc1c(N2CCN(C(=S)Nc3ccccc3F)C(C)C2)c(F)cc2c(=O)c(C(=O)O)cn(C3CC3)c12 (stereo unspecified) | 2.31 µM
Nc1ncncc1-c1ccc([N+](=O)[O-])cc1 | 136 µM
CC(=O)NC(c1cccs1)c1cc([N+](=O)[O-])c2cccnc2c1O (stereo unspecified) | 35.5 µM
Cc1ccccc1OCc1n(CC(=O)OC2CC(C)CCC2C(C)C)c2ccccc2[n+]1C (stereo unspecified) | 80.1 µM
CCOC(=O)N1CCN(C(c2cccnc2)c2ccc3cccnc3c2O)CC1 (stereo unspecified) | 57.1 µM
CCCCCCCCCCOC(=O)C[N+](C)(C)C/C=C(/C)Cl | 83.3 µM
CCCCCCCCCCOC(=O)Cn1c(COc2ccc(Cl)cc2)[n+](C)c2ccccc21 | 26.7 µM
O=S1(=O)Nc2c(ccc3cccnc23)-c2ccccc21 | 3.01 µM
CC(=O)NC(c1ccc(C)cc1)c1cc([N+](=O)[O-])c2cccnc2c1O (stereo unspecified) | 37.9 µM
Cc1ccccc1Nc1cc(C)c2c(O)cccc2n1 | 88.2 µM

SMILES | IC50
CCOC(=O)Cc1csc(NC(=O)NC2(C(F)(F)F)Oc3cc(Cl)c(Cl)cc3O2)n1 | 67.8 µM
O=C1c2ccccc2C(=O)c2[nH]c(=O)[nH]c21 | 6.53 µM
CCCCCCCCCCOC(=O)Cn1c(COc2ccc(OC)cc2)[n+](C)c2ccccc21 | 36.5 µM and 36.1 µM
Nc1nonc1-n1nnc(C(=O)N/N=C/c2cc(Br)ccc2O)c1CSC1=NCCS1 | 145 µM
N=c1n(Cc2ccccc2)c2ccccc2n1CC(O)COc1ccc(Cl)cc1Cl (stereo unspecified) | 49.4 µM
Cc1ccccc1NC(=O)CCC(=O)N/N=C/c1cc([N+](=O)[O-])ccc1O | 138 µM
CCn1cc(C(=O)O)c(=O)c2cc(F)c(N3CCN(C(=S)NC(=O)c4ccccc4)CC3)cc21 | 13.8 µM
Cc1nnc(N/N=C/c2ccccn2)[nH]c1=O | 21.2 µM
COc1cc(Cc2cc(N)nc(N)n2)cc(OC)c1OC | 1 µM
CC[n+]1c(/C=C/C=C/c2ccc(N(C)C)cc2)sc2ccccc21 | 74 µM
O=C(C[n+]1cc(-c2ccc(Cl)cc2)n2c1CCC2)Nc1nc(-c2ccccc2)cs1 | 95 µM
O=c1[nH]c2ccccc2n2c(=S)[nH]nc12 | 29.1 µM
O=C(NC(CO)C(O)c1ccc([N+](=O)[O-])cc1)C(Cl)Cl (stereo unspecified) | 9.17 µM
C[C@H]1c2cccc(O)c2C(O)=C2C(=O)[C@]3(O)C(O)=C(C(N)=O)C(=O)[C@@H](N(C)C)C3[C@@H](O)C21 (stereo partly specified) | 1.31 µM
CO/N=C(/C(=O)N[C@@H]1C(=O)N2C(C(=O)O)=CCS[C@H]12)c1cnc(N)s1 | 23.6 µM
CCCCCCCCCCOC(=O)Cn1c(COc2ccccc2OC)[n+](C)c2ccccc21 | 37 µM
OC(c1cc(-c2ccc(C(F)(F)F)cc2)nc(C(F)(F)F)c1)C1CCCCN1 (stereo unspecified) | 42.2 µM
O=C(NC(CO)Cc1ccc([N+](=O)[O-])cc1)C(Cl)Cl (stereo unspecified) | 9.48 µM
